# Entries after “also recorded” stand apart in the source; their conditions may differ.
# Legend:
# [1] = tested on: Stage III and IV melanoma; experiment: Phase 0 human clinical trial of riluzole in melanoma patients; assay type: in vivo; conditions: after only 14 days of treatment
# From the text: We have recently shown that riluzole has dramatic anti-melanoma activity in vitro cellular assays, in mice and in a Phase 0 human clinical trial. […] However, the therapeutic utility of riluzole itself in ALS and eventually for melanoma is very constrained by rapid first-pass metabolism in the liver and an exceptionally high level of patient-to-patient variability in the extent of the Cyp1A2-mediated oxidative metabolism that is observed.
# C8161 cells [2] = conditions: C8161 human melanoma cells; cited from earlier work
# C8161 cells [3] = conditions: positive control, in comparison with no treatment and DMSO treated; cited from earlier work
compound,measurement,setting,value
Nc1nc2ccc(OC(F)(F)F)cc2s1 [riluzole],patients with clinical or radiologic evidence of tumor response,[1],four of 12; also recorded: four of twelve
same,effect on excess cellular glutamate,C8161 cells [2],inhibits excess cellular gluatamate
same,C8161 cell growth,C8161 cells [3],dose-dependent suppression

# From US12029731B2, “Acyl benzo[d]thiazol-2-amine and their methods of use” (Biohaven Pharmaceutical Holding Company Ltd., priority 2016, dated 2024)
